{
  "source": "ChEMBL document CHEMBL1155915",
  "about": "“Anticonvulsant activity of some xanthone derivatives” (Bioorg Med Chem, 2008)",
  "key": {"Mus musculus [1]": {"tested_on": "Mus musculus", "assay": "Anticonvulsant activity against maximal electroshock-induced seizures in mouse at 100 mg/kg, ip after 0.5 hrs", "assay_type": "functional, organism-based", "parameters": "dose 100 mg/kg"}, "Mus musculus [2]": {"tested_on": "Mus musculus", "assay": "Anticonvulsant activity against maximal electroshock-induced seizures in mouse at 3 mg/kg, ip after 0.5 hrs", "assay_type": "functional, organism-based", "parameters": "dose 3 mg/kg"}, "Rattus norvegicus [3]": {"tested_on": "Rattus norvegicus", "assay": "Neurotoxicity in rat at 30 mg/kg, po after 0.25 hrs by rotarod test", "assay_type": "toxicity, organism-based", "parameters": "dose 30 mg/kg, route oral", "settings": "in vivo"}, "Mus musculus [4]": {"tested_on": "Mus musculus", "assay": "Neurotoxicity in mouse at 10 mg/kg, ip after 4 hrs by rotarod test", "assay_type": "toxicity, organism-based", "parameters": "dose 10 mg/kg, route intraperitoneal", "settings": "in vivo"}, "Mus musculus [5]": {"tested_on": "Mus musculus", "assay": "Neurotoxicity in mouse at 30 mg/kg, ip after 0.5 hrs by rotarod test", "assay_type": "toxicity, organism-based", "parameters": "dose 30 mg/kg, route intraperitoneal", "settings": "in vivo"}, "Mus musculus [6]": {"tested_on": "Mus musculus", "assay": "Neurotoxicity in mouse at 100 mg/kg, ip after 4 hrs by rotarod test", "assay_type": "toxicity, organism-based", "parameters": "dose 100 mg/kg, route intraperitoneal", "settings": "in vivo"}, "Mus musculus [7]": {"tested_on": "Mus musculus", "assay": "Anticonvulsant activity against maximal electroshock-induced seizures in mouse at 30 mg/kg, ip after 0.5 hrs", "assay_type": "functional, organism-based", "parameters": "dose 30 mg/kg"}, "Mus musculus [8]": {"tested_on": "Mus musculus", "assay": "Anticonvulsant activity against scMet-induced seizures in mouse at 100 mg/kg, ip after 4 hrs", "assay_type": "functional, organism-based", "parameters": "dose 100 mg/kg"}, "Rattus norvegicus [9]": {"tested_on": "Rattus norvegicus", "assay": "Neurotoxicity in rat at 30 mg/kg, po after 0.5 hrs by rotarod test", "assay_type": "toxicity, organism-based", "parameters": "dose 30 mg/kg, route oral", "settings": "in vivo"}, "Rattus norvegicus [10]": {"tested_on": "Rattus norvegicus", "assay": "Anticonvulsant activity against maximal electroshock-induced seizures in rat at 30 mg/kg, po after 2 hrs", "assay_type": "functional, organism-based", "parameters": "dose 30 mg/kg"}, "Mus musculus [11]": {"tested_on": "Mus musculus", "assay": "Anticonvulsant activity against maximal electroshock-induced seizures in mouse at 10 mg/kg, ip after 4 hrs", "assay_type": "functional, organism-based", "parameters": "dose 10 mg/kg"}, "Rattus norvegicus [12]": {"tested_on": "Rattus norvegicus", "assay": "Neurotoxicity in rat at 30 mg/kg, po after 1 hr by rotarod test", "assay_type": "toxicity, organism-based", "parameters": "dose 30 mg/kg, route oral", "settings": "in vivo"}, "Rattus norvegicus [13]": {"tested_on": "Rattus norvegicus", "assay": "Neurotoxicity in rat at 30 mg/kg, po after 2 hrs by rotarod test", "assay_type": "toxicity, organism-based", "parameters": "dose 30 mg/kg, route oral", "settings": "in vivo"}, "Rattus norvegicus [14]": {"tested_on": "Rattus norvegicus", "assay": "Anticonvulsant activity against maximal electroshock-induced seizures in rat at 30 mg/kg, po after 0.5 hrs", "assay_type": "functional, organism-based", "parameters": "dose 30 mg/kg"}, "Mus musculus [15]": {"tested_on": "Mus musculus", "assay": "Anticonvulsant activity against scMet-induced seizures in mouse at 10 mg/kg, ip after 0.5 hrs", "assay_type": "functional, organism-based", "parameters": "dose 10 mg/kg"}, "Mus musculus [16]": {"tested_on": "Mus musculus", "assay": "Anticonvulsant activity against scMet-induced seizures in mouse at 10 mg/kg, ip after 4 hrs", "assay_type": "functional, organism-based", "parameters": "dose 10 mg/kg"}, "Mus musculus [17]": {"tested_on": "Mus musculus", "assay": "Neurotoxicity in mouse at 3 mg/kg, ip after 0.5 hrs by rotarod test", "assay_type": "toxicity, organism-based", "parameters": "dose 3 mg/kg, route intraperitoneal", "settings": "in vivo"}, "Mus musculus [18]": {"tested_on": "Mus musculus", "assay": "Anticonvulsant activity against scMet-induced seizures in mouse at 30 mg/kg, ip after 4 hrs", "assay_type": "functional, organism-based", "parameters": "dose 30 mg/kg"}, "Mus musculus [19]": {"tested_on": "Mus musculus", "assay": "Anticonvulsant activity against scMet-induced seizures in mouse at 30 mg/kg, ip after 0.5 hrs", "assay_type": "functional, organism-based", "parameters": "dose 30 mg/kg"}, "Mus musculus [20]": {"tested_on": "Mus musculus", "assay": "Neurotoxicity in mouse at 10 mg/kg, ip after 0.5 hrs by rotarod test", "assay_type": "toxicity, organism-based", "parameters": "dose 10 mg/kg, route intraperitoneal", "settings": "in vivo"}, "Mus musculus [21]": {"tested_on": "Mus musculus", "assay": "Anticonvulsant activity against maximal electroshock-induced seizures in mouse at 30 mg/kg, ip after 4 hrs", "assay_type": "functional, organism-based", "parameters": "dose 30 mg/kg"}, "Mus musculus [22]": {"tested_on": "Mus musculus", "assay": "Neurotoxicity in mouse at 300 mg/kg, ip after 0.5 hrs by rotarod test", "assay_type": "toxicity, organism-based", "parameters": "dose 300 mg/kg, route intraperitoneal", "settings": "in vivo"}, "Rattus norvegicus [23]": {"tested_on": "Rattus norvegicus", "assay": "Neurotoxicity in rat at 30 mg/kg, po after 4 hrs by rotarod test", "assay_type": "toxicity, organism-based", "parameters": "dose 30 mg/kg, route oral", "settings": "in vivo"}, "Mus musculus [24]": {"tested_on": "Mus musculus", "assay": "Anticonvulsant activity against maximal electroshock-induced seizures in mouse at 10 mg/kg, ip after 0.5 hrs", "assay_type": "functional, organism-based", "parameters": "dose 10 mg/kg"}, "Rattus norvegicus [25]": {"tested_on": "Rattus norvegicus", "assay": "Anticonvulsant activity against maximal electroshock-induced seizures in rat at 30 mg/kg, po after 1 hr", "assay_type": "functional, organism-based", "parameters": "dose 30 mg/kg"}, "Mus musculus [26]": {"tested_on": "Mus musculus", "assay": "Anticonvulsant activity against scMet-induced seizures in mouse at 100 mg/kg, ip after 0.5 hrs", "assay_type": "functional, organism-based", "parameters": "dose 100 mg/kg"}, "Rattus norvegicus [27]": {"tested_on": "Rattus norvegicus", "assay": "Anticonvulsant activity against maximal electroshock-induced seizures in rat at 30 mg/kg, po after 4 hrs", "assay_type": "functional, organism-based", "parameters": "dose 30 mg/kg"}, "Mus musculus [28]": {"tested_on": "Mus musculus", "assay": "Neurotoxicity in mouse at 30 mg/kg, ip after 4 hrs by rotarod test", "assay_type": "toxicity, organism-based", "parameters": "dose 30 mg/kg, route intraperitoneal", "settings": "in vivo"}, "Mus musculus [29]": {"tested_on": "Mus musculus", "assay": "Anticonvulsant activity against scMet-induced seizures in mouse at 300 mg/kg, ip after 4 hrs", "assay_type": "functional, organism-based", "parameters": "dose 300 mg/kg"}, "Mus musculus [30]": {"tested_on": "Mus musculus", "assay": "Neurotoxicity in mouse at 300 mg/kg, ip after 4 hrs by rotarod test", "assay_type": "toxicity, organism-based", "parameters": "dose 300 mg/kg, route intraperitoneal", "settings": "in vivo"}, "Mus musculus [31]": {"tested_on": "Mus musculus", "assay": "Anticonvulsant activity against maximal electroshock-induced seizures in mouse at 100 mg/kg, ip after 1 hr", "assay_type": "functional, organism-based", "parameters": "dose 100 mg/kg"}, "Mus musculus [32]": {"tested_on": "Mus musculus", "assay": "Anticonvulsant activity against scMet-induced seizures in mouse at 300 mg/kg, ip after 0.5 hrs", "assay_type": "functional, organism-based", "parameters": "dose 300 mg/kg"}, "Mus musculus [33]": {"tested_on": "Mus musculus", "assay": "Neurotoxicity in mouse at 100 mg/kg, ip after 0.25 hrs by rotarod test", "assay_type": "toxicity, organism-based", "parameters": "dose 100 mg/kg, route intraperitoneal", "settings": "in vivo"}, "Mus musculus [34]": {"tested_on": "Mus musculus", "assay": "Anticonvulsant activity against maximal electroshock-induced seizures in mouse at 300 mg/kg, ip after 0.5 hrs", "assay_type": "functional, organism-based", "parameters": "dose 300 mg/kg"}, "Mus musculus [35]": {"tested_on": "Mus musculus", "assay": "Anticonvulsant activity against maximal electroshock-induced seizures in mouse at 300 mg/kg, ip after 4 hrs", "assay_type": "functional, organism-based", "parameters": "dose 300 mg/kg"}},
  "note": "The source made the active and inactive calls. The calls are words filed in the database; no cut-off is given here.",
  "data": [
    {"smiles": "CCN(CCO)Cc1ccc2oc3cc(Cl)ccc3c(=O)c2c1", "values": [
      {"measurement": "Activity", "setting": "Mus musculus [1]", "result": "Active"},
      {"measurement": "Activity", "setting": "Mus musculus [2]", "result": "inactive"},
      {"measurement": "Neurotoxicity", "setting": "Rattus norvegicus [3]", "result": "Not Active"},
      {"measurement": "Neurotoxicity", "setting": "Mus musculus [4]", "result": "Not Active"},
      {"measurement": "Neurotoxicity", "setting": "Mus musculus [5]", "result": "Not Active"},
      {"measurement": "Neurotoxicity", "setting": "Mus musculus [6]", "result": "Neurotoxic"},
      {"measurement": "Activity", "setting": "Mus musculus [7]", "result": "inactive"},
      {"measurement": "Activity", "setting": "Mus musculus [8]", "result": "inactive"},
      {"measurement": "Neurotoxicity", "setting": "Rattus norvegicus [9]", "result": "Not Active"},
      {"measurement": "Activity", "setting": "Rattus norvegicus [10]", "result": "inactive"},
      {"measurement": "Activity", "setting": "Mus musculus [11]", "result": "inactive"},
      {"measurement": "Neurotoxicity", "setting": "Rattus norvegicus [12]", "result": "Not Active"},
      {"measurement": "Neurotoxicity", "setting": "Rattus norvegicus [13]", "result": "Not Active"},
      {"measurement": "Activity", "setting": "Rattus norvegicus [14]", "result": "inactive"},
      {"measurement": "Activity", "setting": "Mus musculus [15]", "result": "inactive"},
      {"measurement": "Activity", "setting": "Mus musculus [16]", "result": "inactive"},
      {"measurement": "Neurotoxicity", "setting": "Mus musculus [17]", "result": "Not Active"},
      {"measurement": "Activity", "setting": "Mus musculus [18]", "result": "inactive"},
      {"measurement": "Activity", "setting": "Mus musculus [19]", "result": "inactive"},
      {"measurement": "Neurotoxicity", "setting": "Mus musculus [20]", "result": "Not Active"},
      {"measurement": "Activity", "setting": "Mus musculus [21]", "result": "inactive"},
      {"measurement": "Neurotoxicity", "setting": "Mus musculus [22]", "result": "Neurotoxic"},
      {"measurement": "Neurotoxicity", "setting": "Rattus norvegicus [23]", "result": "Not Active"},
      {"measurement": "Activity", "setting": "Mus musculus [24]", "result": "Active"},
      {"measurement": "Activity", "setting": "Rattus norvegicus [25]", "result": "inactive"},
      {"measurement": "Activity", "setting": "Mus musculus [26]", "result": "inactive"},
      {"measurement": "Activity", "setting": "Rattus norvegicus [27]", "result": "inactive"},
      {"measurement": "Neurotoxicity", "setting": "Mus musculus [28]", "result": "Not Active"}
    ]},
    {"smiles": "C[C@@H](CCl)NCc1ccc2oc3cc(Cl)ccc3c(=O)c2c1.Cl", "values": [
      {"measurement": "Activity", "setting": "Mus musculus [1]", "result": "inactive"},
      {"measurement": "Activity", "setting": "Mus musculus [29]", "result": "inactive"},
      {"measurement": "Neurotoxicity", "setting": "Mus musculus [30]", "result": "Not Active"},
      {"measurement": "Activity", "setting": "Mus musculus [31]", "result": "inactive"},
      {"measurement": "Neurotoxicity", "setting": "Mus musculus [6]", "result": "Not Active"},
      {"measurement": "Activity", "setting": "Mus musculus [32]", "result": "inactive"},
      {"measurement": "Activity", "setting": "Mus musculus [7]", "result": "inactive"},
      {"measurement": "Activity", "setting": "Mus musculus [8]", "result": "inactive"},
      {"measurement": "Neurotoxicity", "setting": "Mus musculus [33]", "result": "Not Active"},
      {"measurement": "Activity", "setting": "Mus musculus [34]", "result": "Active"},
      {"measurement": "Activity", "setting": "Mus musculus [18]", "result": "inactive"},
      {"measurement": "Activity", "setting": "Mus musculus [19]", "result": "inactive"},
      {"measurement": "Activity", "setting": "Mus musculus [21]", "result": "inactive"},
      {"measurement": "Activity", "setting": "Mus musculus [35]", "result": "Active"},
      {"measurement": "Activity", "setting": "Mus musculus [26]", "result": "inactive"},
      {"measurement": "Neurotoxicity", "setting": "Mus musculus [28]", "result": "Not Active"}
    ]}
  ]
}
